# Earlier results in patent publication US20240384284A1, “FEED CROPS FOR REDUCED METHANOGENESIS IN LIVESTOCK” (Elysia Creative Biology, LLC, priority 2023, published 2024).
# Tested on: methanogenesis
smiles,measurement,value
BrC(Br)Br [Bromoform],in vivo methane reduction,up to 98%
